From US4994270A, “A54145 antibiotics and process for their production” (Eli Lilly and Company, priority 1988, dated 1991)
≈ marks a conversion by molar mass, not a printed value. Starred links: 1 amine or outer side, 2 acyl side, 3 side chain; linkers in the order of their positions; H or OH if unused. Positions of bridges follow the written chain, without caps; N, C: chain ends. Non-standard residues stand in square brackets, D forms with d. Residues, ends and D or L forms follow the SMILES beside them. ξ: configuration not given here. *: point of attachment. Ileψ(thiazoline)Cys = CC[C@H](C)[C@H](N)C1=N[C@H](C(=O)*)CS1; ξAsp(3ξ-OMe) = COC(C(=O)O)C(N)C(=O)O; X1 = CC(CC(=O)O)C(N[*:1])C(=O)[*:2]; ξAsn(3ξ-OH) = NC(=O)C(O)C(N)C(=O)O; Decanoyl = CCCCCCCCCC(=O)*; dOrn = NCCC[C@@H](N)C(=O)O; X3 = CCC(C)CCCCCCC(=O)*; X2 = CC(C)CCCCCCC(=O)*; Sar = CNCC(=O)O

Assays:
[1] = tested on: Staphylococcus aureus S13E; test: MIC, conventional agar-dilution assay; format: cell-based
Method: (§1) The A54145 antibiotics inhibit the growth of pathogenic bacteria. […] The MIC's in Table IX were determined by conventional agar-dilution assays.

[2] = tested on: Streptococcus pyogenes C203; test: MIC, conventional agar-dilution assay; format: cell-based
Method: as §1

[3] = tested on: Streptococcus pneumoniae Park1; test: MIC, conventional agar-dilution assay; format: cell-based
Method: as §1

[4] = tested on: Staphylococcus epidermidis EPI1; test: MIC, conventional agar-dilution assay; format: cell-based
Method: as §1

[5] = tested on: Staphylococcus aureus X1.1; test: MIC, conventional agar-dilution assay; format: cell-based
Method: as §1

[6] = tested on: Streptococcus sp. group D X66; test: MIC, conventional agar-dilution assay; format: cell-based
Method: as §1

[7] = tested on: Staphylococcus aureus V41; test: MIC, conventional agar-dilution assay; format: cell-based
Method: as §1

[8] = tested on: Staphylococcus aureus X400; test: MIC, conventional agar-dilution assay; format: cell-based
Method: as §1

[9] = tested on: Streptococcus sp. group 2041; test: MIC, conventional agar-dilution assay; format: cell-based
Method: as §1

[10] = tested on: Staphylococcus epidermidis 222; test: MIC, conventional agar-dilution assay; format: cell-based
Method: as §1

Streptococcus pyogenes = test: ED50 in experimentally infected mice; format: in vivo; details: mice infected with Streptococcus pyogenes; subcutaneous; doses given 1 and 4 hours postinfection
Method: The A54145 antibiotics have shown in vivo antimicrobial activity against experimentally-induced infections in laboratory animals. When two doses of test compound were administered to mice experimentally infected with Streptococcus pyogenes or Staphylococcus aureus, the activity observed was measured as an ED50 value [effective dose in mg/kg to protect 50% of the test animals: see Warren Wick, et al. J. Bacteriol. 81 233-235 (1961)].

[11] = Chick growth performance test (weight gain, feed efficiency); format: in vivo, chicks; details: Table XIII; for Weight Gain Amt.: chicks 7-14 days of age; for Feed/Gain % Impr. / Weight Gain % Impr.: relative to the control mean
Source text: In the tests, the compounds were given to chicks at the concentrations indicated in the feed. The test period was the 7-day period from 7-14 days of age of the birds. Growth performance (weight gain, feed consumption and feed efficiency) was compared to that of contemporary controls.

[12] = tested on: Streptomyces fradiae A54145.1, A54145.2 and A54145.3; test: Resistance to antibiotics, sensitivity discs on seeded ISP No. 2 agar plates; details: identical for A54145.1, A54145.2, A54145.3; lincomycin 2 μg, penicillin G 10 units, bacitracin 10 units, cephalothin 30 μg, gentamicin 10 μg, neomycin 30 μg, oleandomycin 15 μg, rifampin 5 μg, streptomycin 10 μg, tetracycline 30 μg, tobramycin 10 μg, vancomycin 30 μg
Method: Resistance to antibiotics was measured by padding antibiotic sensitivity discs onto the surface of seeded ISP No. 2 agar plates.

Structure (SMILES) | MIC [1] [µg/mL] | MIC [2] [µg/mL] | MIC [3] [µg/mL] | MIC [4] [µg/mL] | MIC [5] [µg/mL] | MIC [6] [µg/mL] | MIC [7] [µg/mL] | MIC [8] [µg/mL] | MIC [9] [µg/mL] | MIC [10] [µg/mL] | resistance or sensitivity of the strains to antibiotic discs [12] | also measured
CCCCCCCCCC(=O)NC(Cc1c[nH]c2ccccc12)C(=O)NC(CCC(=O)O)C(=O)NC(C(=O)NC1C(=O)N(C)CC(=O)NC(C)C(=O)NC(CC(=O)O)C(=O)NC(CCCCN)C(=O)NC(C(OC)C(=O)O)C(=O)NCC(=O)NC(CC(N)=O)C(=O)NC(CCC(=O)O)C(=O)NC(C(C)CC)C(=O)OC1C)C(O)C(N)=O (stereo not shown) [Component A54145A1] (Decanoyl-WE[ξAsn(3ξ-OH)]T[Sar]ADK[ξAsp(3ξ-OMe)]GNEI; ester 4-C; configuration not given here) | 8 (≈ 4.86 µM) | 1 (≈ 0.608 µM) | 4 (≈ 2.43 µM) | 4 (≈ 2.43 µM) | 4 (≈ 2.43 µM) | 16 (≈ 9.73 µM) | 4 (≈ 2.43 µM) | 8 (≈ 4.86 µM) | 32 (≈ 19.5 µM) | 4 (≈ 2.43 µM) | – | ED50 Value (Streptococcus pyogenes): 5.0 mg/kg × 2
CCC(C)C1NC(=O)C(C(C)CC(=O)O)NC(=O)C(CC(N)=O)NC(=O)CNC(=O)C(C(OC)C(=O)O)NC(=O)C(CCCCN)NC(=O)C(CC(=O)O)NC(=O)C(C)NC(=O)CN(C)C(=O)C(NC(=O)C(NC(=O)C(CCC(=O)O)NC(=O)C(Cc2c[nH]c3ccccc23)NC(=O)CCCCCCC(C)C)C(O)C(N)=O)C(C)OC1=O (stereo not shown) [Component A54145B1] (X2-WE[ξAsn(3ξ-OH)]T[Sar]ADK[ξAsp(3ξ-OMe)]GN[X1]I; ester 4-C; configuration not given here) | 2 (≈ 1.21 µM) | 0.5 (≈ 0.301 µM) | 2 (≈ 1.21 µM) | 1 (≈ 0.603 µM) | 2 (≈ 1.21 µM) | 8 (≈ 4.82 µM) | 2 (≈ 1.21 µM) | 2 (≈ 1.21 µM) | 32 (≈ 19.3 µM) | 1 (≈ 0.603 µM) | – | Feed/Gain Ratio ([11]; 5 g/ton): 1.906; Weight Gain Amt. ([11]; 5 g/ton in feed): 326 g; Feed/Gain % Impr. ([11]; 5 g/ton): 5.3%; Weight Gain % Impr. ([11]; 5 g/ton): 3.5%; Feed/Gain Ratio ([11]; 10 g/ton): 1.860; Weight Gain Amt. ([11]; 10 g/ton in feed): 358 g; Feed/Gain % Impr. ([11]; 10 g/ton): 7.4%; Weight Gain % Impr. ([11]; 10 g/ton): 13.7%; Feed/Gain Ratio ([11]; 20 g/ton): 1.686; Weight Gain Amt. ([11]; 20 g/ton in feed): 448 g; Feed/Gain % Impr. ([11]; 20 g/ton): 16.2%; Weight Gain % Impr. ([11]; 20 g/ton): 42.2%
CCC(C)CCCCCCC(=O)NC(Cc1c[nH]c2ccccc12)C(=O)NC(CCC(=O)O)C(=O)NC(C(=O)NC1C(=O)N(C)CC(=O)NC(C)C(=O)NC(CC(=O)O)C(=O)NC(CCCCN)C(=O)NC(C(OC)C(=O)O)C(=O)NCC(=O)NC(CC(N)=O)C(=O)NC(C(C)CC(=O)O)C(=O)NC(C(C)C)C(=O)OC1C)C(O)C(N)=O (stereo not shown) [Component A54145C] (X3-WE[ξAsn(3ξ-OH)]T[Sar]ADK[ξAsp(3ξ-OMe)]GN[X1]V; ester 4-C; configuration not given here) | 2 (≈ 1.21 µM) | 0.5 (≈ 0.301 µM) | 2 (≈ 1.21 µM) | 2 (≈ 1.21 µM) | 2 (≈ 1.21 µM) | 4 (≈ 2.41 µM) | 2 (≈ 1.21 µM) | 2 (≈ 1.21 µM) | 4 (≈ 2.41 µM) | 1 (≈ 0.603 µM) | – | –
CCC(C)CCCCCCC(=O)NC(Cc1c[nH]c2ccccc12)C(=O)NC(CCC(=O)O)C(=O)NC(C(=O)NC1C(=O)N(C)CC(=O)NC(C)C(=O)NC(CC(=O)O)C(=O)NC(CCCCN)C(=O)NC(C(OC)C(=O)O)C(=O)NCC(=O)NC(CC(N)=O)C(=O)NC(CCC(=O)O)C(=O)NC(C(C)CC)C(=O)OC1C)C(O)C(N)=O (stereo not shown) [Component A54145D] (X3-WE[ξAsn(3ξ-OH)]T[Sar]ADK[ξAsp(3ξ-OMe)]GNEI; ester 4-C; configuration not given here) | 4 (≈ 2.41 µM) | 0.5 (≈ 0.301 µM) | 4 (≈ 2.41 µM) | 2 (≈ 1.21 µM) | 4 (≈ 2.41 µM) | 4 (≈ 2.41 µM) | 4 (≈ 2.41 µM) | 4 (≈ 2.41 µM) | 32 (≈ 19.3 µM) | 2 (≈ 1.21 µM) | – | –
CCC(C)CCCCCCC(=O)NC(Cc1c[nH]c2ccccc12)C(=O)NC(CCC(=O)O)C(=O)NC(C(=O)NC1C(=O)N(C)CC(=O)NC(C)C(=O)NC(CC(=O)O)C(=O)NC(CCCCN)C(=O)NC(C(OC)C(=O)O)C(=O)NCC(=O)NC(CC(N)=O)C(=O)NC(C(C)CC(=O)O)C(=O)NC(C(C)CC)C(=O)OC1C)C(O)C(N)=O (stereo not shown) [Component A54145E] (X3-WE[ξAsn(3ξ-OH)]T[Sar]ADK[ξAsp(3ξ-OMe)]GN[X1]I; ester 4-C; configuration not given here) | 2 (≈ 1.2 µM) | 0.25 (≈ 0.149 µM) | 1 (≈ 0.598 µM) | 1 (≈ 0.598 µM) | 1 (≈ 0.598 µM) | 2 (≈ 1.2 µM) | 2 (≈ 1.2 µM) | 2 (≈ 1.2 µM) | 4 (≈ 2.39 µM) | 1 (≈ 0.598 µM) | – | –
COC(C(=O)O)C1NC(=O)C(CCCCN)NC(=O)C(CC(=O)O)NC(=O)C(C)NC(=O)CN(C)C(=O)C(NC(=O)C(NC(=O)C(CCC(=O)O)NC(=O)C(Cc2c[nH]c3ccccc23)NC(=O)CCCCCCC(C)C)C(O)C(N)=O)C(C)OC(=O)C(C(C)C)NC(=O)C(CCC(=O)O)NC(=O)C(CC(N)=O)NC(=O)CNC1=O (stereo not shown) [Component A54145F] (X2-WE[ξAsn(3ξ-OH)]T[Sar]ADK[ξAsp(3ξ-OMe)]GNEV; ester 4-C; configuration not given here) | 16 (≈ 9.81 µM) | 4 (≈ 2.45 µM) | 8 (≈ 4.91 µM) | 16 (≈ 9.81 µM) | 16 (≈ 9.81 µM) | 16 (≈ 9.81 µM) | 16 (≈ 9.81 µM) | 16 (≈ 9.81 µM) | > 32 | 8 (≈ 4.91 µM) | – | –
CC[C@H](C)[C@H](N)C1=N[C@H](C(=O)N[C@@H](CC(C)C)C(=O)N[C@H](CCC(=O)O)C(=O)N[C@H](C(=O)N[C@H]2CCCCNC(=O)[C@H](CC(N)=O)NC(=O)[C@@H](CC(=O)O)NC(=O)[C@H](Cc3cnc[nH]3)NC(=O)[C@@H](Cc3ccccc3)NC(=O)[C@H]([C@@H](C)CC)NC(=O)[C@@H](CCCN)NC2=O)[C@@H](C)CC)CS1 [bacitracin] ({Ileψ(thiazoline)Cys}-L[dE]IK[dOrn]I[dF]H[dD]N; lactam 4-C) | – | – | – | – | – | – | – | – | – | – | sensitive | –
CC(=O)OCC1=C(C(=O)O)N2C(=O)[C@@H](NC(=O)Cc3cccs3)[C@H]2SC1 [cephalothin] | – | – | – | – | – | – | – | – | – | – | sensitive | –
CCC[C@@H]1C[C@@H](C(=O)N[C@@H]([C@H]2O[C@H](SC)[C@H](O)[C@@H](O)[C@H]2O)[C@@H](C)O)N(C)C1 [lincomycin] | – | – | – | – | – | – | – | – | – | – | resistant | –
